Paper PMC5640650, “NatD promotes lung cancer progression by preventing histone H4 serine phosphorylation to activate Slug expression” (Nature Communications, 2017)

What was measured:
[1] = tested on: H1299 cells; test: Apoptosis and cell cycle by flow cytometry, H1299 cells; format: cell-based, human; details: vs Scr
Procedure: The in vitro viability of H1299 cells was assessed using the Cell Counting Kit-8 (CCK-8, Dojindo, Japan) according to the manufacturer’s protocol. Flow cytometric analysis of apoptosis was assessed by Annexin V and PI staining using the Annexin V-APC Apoptosis Detection Kit (KeyGEN BioTECH, China) according to the manufacturer’s guide. For cell cycle analysis, cells were harvested and fixed at 4 °C overnight with 70% ethanol. Cells were washed twice with PBS, and their DNA was stained using a Cell Cycle Detection Kit (KeyGEN BioTECH, China). The samples were analyzed by flow cytometry (Becton Dickinson, NJ, USA), and results were analyzed with FlowJo software according to the manufacturer’s instructions. For the wound healing assay, cells were plated to confluence in a 6-well plate, and the cell monolayer was scratched using a pipette tip. Representative photos were taken using a digital camera mounted on an inverted microscope (Olympus) at indicated times. Live cell imaging was performed using the HoloMonitor M4 time-lapse cytometer (Phase Holographic Imaging, Sweden). […]
Supplementary Figure 1. […] (b and c) Representative images from three independent experiments of apoptosis (b) and cell cycle analysis (c) of Scr and NatD-KD H1299 cells analyzed by flow cytometry. […]

[2] = tested on: A549 cells; test: Tail vein xenograft in SCID mice, A549 cells; format: in vivo, human
Source text: Fig. 3 NatD promotes lung cancer cell invasion in a xenograft mouse model. a (left) Representative bioluminescent (BLI) images acquired at the indicated time points after intravenous injection of SCID mice with Scr or NatD-KD A549 cells. NatD-KD2 cells were used because the KD2 shRNA produced a better knockdown effect. Pseudocolor heat-maps indicate intensity of bioluminescence from low (blue) to high (red) (D, day). (right) Normalized BLI signals of lung tumors of corresponding mice (n = 5 for each group) recorded at the indicated time points. Results are shown as mean ± s.d. from five mice. […] (right) Quantification of total lung bioluminescence from SCID mice as in (b) (n = 5 for each group). […]
All animal care and handling procedures were performed in accordance with the National Institutes of Health Guide for the Care and Use of Laboratory Animals, and were approved by the Institutional Review Board of Nanjing University (Nanjing, China). […] Lung nodules and progression were monitored and quantified using the bioluminescence system (Caliper IVIS Lumina XR) or by counting under a dissecting microscope. […] Mice were killed at day 28 or day 30 to collect lungs, and lung nodules in serial sections were quantified microscopically. […] Lung nodules and progression were monitored and quantified using the bioluminescence system (Caliper IVIS Lumina XR). […]

Substance: NatD-KD2: Human NatD shRNA KD2: 5′-GGTTGAATGTCTCCATTGA-3′, lentiviral (shRNA lentiviral)
- numbers of apoptotic cells or cell cycle [1]: no difference
- lung cancer growth signals (photon radiance) ([2]; BLI days 1-28, n = 5, vs Scr): significantly reduced
- number of tumor nodules ([2]; day 28, n = 5, relative to Scr): decreased threefold
